Article PMC6413085, “A Validated HPLC-MS/MS Assay for 14-O-[(4,6-Diaminopyrimidine-2-yl)thioacetyl] Mutilin in Biological Samples and Its Pharmacokinetic, Distribution and Excretion via Urine and Feces in Rats” (Molecules, 2019)

Assays:
[1] = Stability of DPTM in plasma, tissue homogenates, urine and feces (QC samples); format: physicochemical, rat
Description: Stability of DPTM and IS was examined by comparing the analytes’ concentrations in freshly prepared samples with those of samples maintained under different conditions, including the 24 h storage at room temperature, three freeze and thaw cycles, and storage at −70 °C for 4 weeks, respectively. Analyzing three levels of QC samples were used to assess the stability (accuracy and precision) with six replicates.
For the construction of calibration curves, 20 μL of each corresponding standard working solution (0.05, 0.2, 0.5, 1, 2, 5, 10, 20 and 40 μg/mL) was evaporated to dryness by nitrogen at 40 °C. The calibration standards (5, 20, 50, 100, 200, 500, 1000, 2000 and 4000 ng/mL) were prepared by adding 200 μL of blank plasma, various tissue homogenates (including heart, liver, spleen, lung, kidney, large intestine, small intestine, ileum, cecum, bladder, brain, jejunum and colon) or urine and feces to the residue, respectively. Quality control (QC) samples (10, 200 and 3000 ng/mL) were obtained by the same way as the calibration standards. All solutions were stored at −70 °C before use for no longer than 4 weeks.

[2] = Tissue distribution study in rats; format: in vivo, Sprague-Dawley rats; conditions: rat, 75 mg/kg; for highest level in cecum / highest level in jejunum / highest level in large intestine / highest level in lung / highest level in small intestine: within the first 24 h;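 for highest level in cecum: three values per tissue are for i.v. then i.m. then p.o. dosing in that order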;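 for highest level in jejunum: three values per tissue are for i.v. then i.m. then p.o. dosing in that order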;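 for highest level in large intestine: three values per tissue are for i.v. then i.m. then p.o. dosing in that order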;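 for highest level in lung: three values per tissue are for i.v. then i.m. then p.o. dosing in that order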
Description: We also successfully used the established LC-MS/MS method for detection of the concentration of DPTM in rat tissue homogenates. The quantification of DPTM used the specific standard curves in each corresponding bio-matrix. After i.v., i.m. and p.o. administration of 75 mg/kg DPTM, tissue distribution was investigated at 0.5, 4, 12 and 48 h by collecting the heart, liver, brain, spleen, lung, kidney, large intestine, small intestine, ileum, cecum, bladder, jejunum and colon. Tissue distribution study in rats was performed as described previously. Animals were divided into three groups (n = 12) and DPTM was administered via i.m., i.v. and p.o. with a single dose of 75 mg/kg. A series of heart, liver, spleen, lung, kidney, large intestine, small intestine, ileum, cecum, bladder, brain, jejunum and colon samples were collected before and at 0.5, 4, 12 and 48 h time points after administration and rinsed with phosphate buffer to remove the blood and feces, followed by weighing the wet weight and freezing at −70 °C until analysis. The concentrations of DPTM in rat various tissues were expressed in ng/g and calculated by equation: Ct = Cs × Vs/P, where Ct represented the tissue concentration (ng/g), Cs, Vs and P were the concentration (ng/mL), the volume (mL) and the weight (g) of the tissue samples, respectively.

For `C=CC1(C)CC(OC(=O)CSc2nc(N)cc(N)n2)C2(C)C(C)CCC3(CCC(=O)C32)C(C)C1O` (stereo not drawn) [DPTM, 14-O-[(4,6-Diaminopyrimidine-2-yl)thioacetyl] mutilin], which “Stability RE” value ([1]; Large intestine, 200 ng/mL, Long-term (−70 °C, 4 Weeks)) is on record?
The value was 2.2%.

And the “Stability RE” value ([1]; Large intestine, 200 ng/mL, Short-term (25 °C, 24 h))?
Its value is 5.7%.

And the “Stability RE” value ([1]; Large intestine, 3000 ng/mL, Freeze-thaw Cycles)?
The value was 3.1%.

And the “Stability RE” value ([1]; Large intestine, 3000 ng/mL, Long-term (−70 °C, 4 Weeks))?
The value was 3.5%.

And the “Stability RE” value ([1]; Large intestine, 3000 ng/mL, Short-term (25 °C, 24 h))?
Its value is −0.9%.

And the “Stability RE” value ([1]; Liver, 10 ng/mL, Freeze-thaw Cycles)?
The value was 3.3%.

And the “Stability RE” value ([1]; Liver, 10 ng/mL, Long-term (−70 °C, 4 Weeks))?
Its value is 3.4%.

What about the “Stability RE” value ([1]; Liver, 10 ng/mL, Short-term (25 °C, 24 h)) of the same compound?
The value was 2.9%.

And the “Stability RE” value ([1]; Liver, 200 ng/mL, Freeze-thaw Cycles)?
Its value is 3.4%.

What about the “Stability RE” value ([1]; Liver, 200 ng/mL, Long-term (−70 °C, 4 Weeks)) of the same compound?
The value was 3.6%.

And the “Stability RE” value ([1]; Liver, 200 ng/mL, Short-term (25 °C, 24 h))?
Its value is 3.3%.

What about the “Stability RE” value ([1]; Liver, 3000 ng/mL, Freeze-thaw Cycles) of the same compound?
Its value is 1.9%.

And the “Stability RE” value ([1]; Liver, 3000 ng/mL, Long-term (−70 °C, 4 Weeks))?
Its value is 2.1%.

What about the “Stability RE” value ([1]; Liver, 3000 ng/mL, Short-term (25 °C, 24 h)) of the same compound?
The value was 6.1%.

And the “Stability RE” value ([1]; Lung, 10 ng/mL, Freeze-thaw Cycles)?
The value was 2.5%.

What about the “Stability RE” value ([1]; Lung, 10 ng/mL, Long-term (−70 °C, 4 Weeks)) of the same compound?
Its value is 2.9%.

And the “Stability RE” value ([1]; Lung, 10 ng/mL, Short-term (25 °C, 24 h))?
The value was 3.3%.

And the “Stability RE” value ([1]; Lung, 200 ng/mL, Freeze-thaw Cycles)?
The value was 3.1%.

And the “Stability RE” value ([1]; Lung, 200 ng/mL, Long-term (−70 °C, 4 Weeks))?
Its value is 3.5%.

What about the “Stability RE” value ([1]; Lung, 200 ng/mL, Short-term (25 °C, 24 h)) of the same compound?
The value was 2.1%.

And the “Stability RE” value ([1]; Lung, 3000 ng/mL, Freeze-thaw Cycles)?
The value was 7.6%.

And the “Stability RE” value ([1]; Lung, 3000 ng/mL, Long-term (−70 °C, 4 Weeks))?
Its value is 7.5%.

And the “Stability RE” value ([1]; Lung, 3000 ng/mL, Short-term (25 °C, 24 h))?
The value was 1.3%.

And the “Stability RE” value ([1]; Small intestine, 10 ng/mL, Freeze-thaw Cycles)?
Its value is 4.9%.

What about the “Stability RE” value ([1]; Small intestine, 10 ng/mL, Long-term (−70 °C, 4 Weeks)) of the same compound?
The value was 4.6%.

And the “Stability RE” value ([1]; Small intestine, 10 ng/mL, Short-term (25 °C, 24 h))?
The value was 1.3%.

What about the “Stability RE” value ([1]; Small intestine, 200 ng/mL, Freeze-thaw Cycles) of the same compound?
The value was 3.2%.

What about the “Stability RE” value ([1]; Small intestine, 200 ng/mL, Long-term (−70 °C, 4 Weeks)) of the same compound?
Its value is 3.6%.

What about the “Stability RE” value ([1]; Small intestine, 200 ng/mL, Short-term (25 °C, 24 h)) of the same compound?
Its value is 3.7%.

What about the “Stability RE” value ([1]; Small intestine, 3000 ng/mL, Freeze-thaw Cycles) of the same compound?
Its value is 3.9%.

And the “Stability RE” value ([1]; Small intestine, 3000 ng/mL, Long-term (−70 °C, 4 Weeks))?
Its value is 3.8%.

What about the “Stability RE” value ([1]; Small intestine, 3000 ng/mL, Short-term (25 °C, 24 h)) of the same compound?
The value was 5.3%.

And the “Stability RE” value ([1]; Spleen, 10 ng/mL, Freeze-thaw Cycles)?
Its value is 3.6%.

And the “Stability RE” value ([1]; Spleen, 10 ng/mL, Long-term (−70 °C, 4 Weeks))?
Its value is 3.3%.

What about the “Stability RE” value ([1]; Spleen, 10 ng/mL, Short-term (25 °C, 24 h)) of the same compound?
Its value is 3.7%.

And the “Stability RE” value ([1]; Spleen, 200 ng/mL, Freeze-thaw Cycles)?
The value was 7.9%.

And the “Stability RE” value ([1]; Spleen, 200 ng/mL, Long-term (−70 °C, 4 Weeks))?
Its value is 7.1%.

And the “Stability RE” value ([1]; Spleen, 200 ng/mL, Short-term (25 °C, 24 h))?
Its value is 7.2%.

And the “Stability RE” value ([1]; Spleen, 3000 ng/mL, Freeze-thaw Cycles)?
Its value is 5.6%.

What about the “Stability RE” value ([1]; Spleen, 3000 ng/mL, Long-term (−70 °C, 4 Weeks)) of the same compound?
Its value is 5.7%.

And the “Stability RE” value ([1]; Spleen, 3000 ng/mL, Short-term (25 °C, 24 h))?
Its value is 5.9%.

And the “results of stability experiments (% RE and % RSD)” value ([1]; plasma, tissue homogenates, urine and feces, 24 h at room temperature, three freeze and thaw cycles, −70 °C for 4 weeks)?
Its value is no more than 15%.

What about the “amount in colon until 48 h” value ([2]; i.m.) of the same compound?
Its value is 7849 ± 243 ng/mg.

What about the “highest level in cecum” value ([2]; i.m.) of the same compound?
The value was 63404 ± 407 ng/mg.

What about the “highest level in jejunum” value ([2]; i.m.) of the same compound?
The value was 12551 ± 432 ng/mg.

And the “highest level in large intestine” value ([2]; i.m.)?
Its value is 17978 ± 116 ng/mg.

And the “highest level in lung” value ([2]; i.m.)?
The value was 15345 ± 579 ng/mg.

What about the “highest level in small intestine” value ([2]; i.m.) of the same compound?
Its value is 37890 ± 437 ng/mg.

What about the “amount in colon until 48 h” value ([2]; i.v.) of the same compound?
Its value is 3214 ± 177 ng/mg.

And the “highest level in cecum” value ([2]; i.v.)?
Its value is 62457 ± 675 ng/mg.

What about the “highest level in jejunum” value ([2]; i.v.) of the same compound?
The value was 23543 ± 799 ng/mg.

What about the “highest level in large intestine” value ([2]; i.v.) of the same compound?
The value was 31241 ± 355 ng/mg.

What about the “highest level in lung” value ([2]; i.v.) of the same compound?
Its value is 39411 ± 357 ng/mg.

What about the “highest level in small intestine” value ([2]; i.v.) of the same compound?
Its value is 26753 ± 690 ng/mg.

What about the “amount in colon until 48 h” value ([2]; p.o.) of the same compound?
Its value is 22114 ± 215 ng/mg.

What about the “highest level in cecum” value ([2]; p.o.) of the same compound?
The value was 31087 ± 452 ng/mg.

And the “highest level in jejunum” value ([2]; p.o.)?
Its value is 38769 ± 546 ng/mg.

What about the “highest level in large intestine” value ([2]; p.o.) of the same compound?
The value was 4123 ± 567 ng/mg.

What about the “highest level in lung” value ([2]; p.o.) of the same compound?
Its value is 14685 ± 654 ng/mg.

What about the “highest level in small intestine” value ([2]; p.o.) of the same compound?
Its value is 6743 ± 474 ng/mg.
